Laboratory results as given in PubChem BioAssay AID1918996 (Molecular Pharmacology Branch, DTP, NCI, 2023).

System: 349418-098-R-PDC complex spheroid growth
Assay: Anticancer human tumor 349418-098-R-PDC patient-derived lung adenocarcinoma cell line growth inhibition [AhR]
Conditions: for IC50: curve of first compound; for viability, T/C: stronger effect = lower value
Text: Multicellular complex tumor spheroid response to aryl hydrocarbon receptor antagonists in combination with a variety of drugs and investigational agents in selected tumor cell lines
The current study was undertaken to assess response to aryl hydrocarbon receptor antagonists in combination with standard-of-care drugs and investigational agents in solid tumor complex spheroid models. Complex spheroids include a stromal component modeled by human endothelial cells (HUVEC) and fibroblasts modeled by human mesenchymal stem cells (MSCs). The concentration ranges selected for each drug and investigational agent were based upon clinically achievable concentrations if the clinical Cmax of the agent was known.
Compounds. The drugs and investigational agents: BAY 2416964 (NSC825713), GNF351 (NSC835774), CH-223191 (NSC835775), CPI-455 (NSC825282), aza-TdCyd (NSC777586), decitabine (NSC127716), belinostat (NSC758774), entinostat (NSC756642), pevonedistat (NSC761192), tazemetostat (NSC777109), talazoparib (NSC765396), olaparib (NSC753686), selinexor (NSC780203), nedisertib (M3814, NSC802822), bortezomib (NSC756655), venetoclax (NSC766270), doxorubicin (NSC123127), elimusertib (BAY189344, NSC800525), ceralasertib (AZD6738, NSC777638), TAK-243 (NSC785004), alisertib (NSC759677), etoposide (NSC141540), topotecan (NSC609699), eribulin (NSC707389), gemcitabine (NSC613327), carboplatin (NSC241240), cisplatin (NSC119875), and SN-38 (NSC673596) were obtained from the National Cancer Institute (NCI) Developmental Therapeutics Program Chemical Repository (32). The FDA-approved anticancer drug set is available from the Developmental Therapeutics Program at https://dtp.cancer.gov/organization/dscb/obtaining/available plates.htm. […] The stock solutions were prepared in dimethyl sulfoxide (DMSO, Sigma-Aldrich, St. Louis, MO, cat. D2650), except for the platinum compounds which were prepared in saline (Quality Biological, Gaithersburg, MD, cat. 114-055-101), at 800-fold the tested concentration and stored at -70 degrees C prior to their use. All drugs and investigational agents were tested over a range starting from a high concentration at or near the clinical Cmax and decreasing in half-log increments. If the clinical Cmax for an agent had not been determined, the highest concentration tested was 10 microM (Table 1).
Cell Culture. All cells were maintained in an incubator at 37 degrees C and 5% CO2 with 95% humidity. The PDC lines were cultured according to standard operating procedures established by the NCI PDMR (https://pdmr.cancer.gov). Briefly, all PDCs were thawed and cultured in Matrigel-coated flasks prepared with a working solution of 1X Ham's F-12 nutrient mix, without supplementation (Invitrogen, Waltham, MA, cat. 11765054), 100 U/mL penicillin-streptomycin (Invitrogen, cat. 15140122), and 2.5% Matrigel (Corning Inc., Corning, NY, cat. 354248) for the first three passages. All PDCs were cultured in complete DMEM/F-12 media containing advanced DMEM/F-12 (Invitrogen, cat. 12634028), 4.9% defined fetal bovine serum, heat inactivated (HyClone Laboratories Inc., Logan, UT, cat. SH30070.03HI), 389 ng/mL hydrocortisone (Sigma-Aldrich, cat. H4001), 9.7 ng/mL human EGF recombinant protein (Invitrogen, cat. PHG0313), 23.4 microg/mL adenine (Sigma-Aldrich, cat. A2786), 97.3 U/mL penicillin-streptomycin (Invitrogen, cat. 15140122), 1.9 mM L-glutamine (Invitrogen, cat. 25030081), and 9.7 microM Y-27632 dihydrochloride (Tocris Bioscience, Bristol, United Kingdom, cat. 1254). The PDCs were cultured in complete DMEM/F12 media without 10 microM Y-27632 dihydrochloride for at least two passages prior to the screen. The established cell lines NCI-H1341 and […] were cultured in DMEM/F-12, HEPES (Invitrogen, cat. 11330032), 5% defined fetal bovine serum (HyClone Laboratories Inc., cat. SH30070.03), ITS premix universal culture supplement [insulin (5 microg/mL), transferrin (5 microg/mL), and selenious acid (5 ng/mL)] […]

[1] = second compound 0.1 µM, first compound 0.0316 µM
[2] = second compound 0.1 µM, first compound 0.1 µM
[3] = second compound 0.1 µM, first compound 0.316 µM
[4] = second compound 0.1 µM, first compound 1 µM
[5] = second compound 0.1 µM, first compound 3.16 µM
[6] = second compound 0.1 µM, first compound 10 µM
[7] = second compound 0.316 µM, first compound 0.0316 µM
[8] = second compound 0.316 µM, first compound 0.1 µM
[9] = second compound 0.316 µM, first compound 0.316 µM
[10] = second compound 0.316 µM, first compound 1 µM
[11] = second compound 0.316 µM, first compound 3.16 µM
[12] = second compound 0.316 µM, first compound 10 µM
[13] = second compound 1 µM, first compound 0.0316 µM
[14] = second compound 1 µM, first compound 0.1 µM
[15] = second compound 1 µM, first compound 0.316 µM
[16] = second compound 1 µM, first compound 1 µM
[17] = second compound 1 µM, first compound 3.16 µM
[18] = second compound 1 µM, first compound 10 µM
[19] = second compound 3.16 µM, first compound 0.0316 µM
[20] = second compound 3.16 µM, first compound 0.1 µM
[21] = second compound 3.16 µM, first compound 0.316 µM
[22] = second compound 3.16 µM, first compound 1 µM
[23] = second compound 3.16 µM, first compound 3.16 µM
[24] = second compound 3.16 µM, first compound 10 µM
[25] = second compound 10 µM, first compound 0.0316 µM
[26] = second compound 10 µM, first compound 0.1 µM
[27] = second compound 10 µM, first compound 0.316 µM
[28] = second compound 10 µM, first compound 1 µM
[29] = second compound 10 µM, first compound 3.16 µM
[30] = second compound 10 µM, first compound 10 µM
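Also: spheroids exposed to agents for seven days before luminescence viability read.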
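For viability, T/C in this document: spheroids also contain HUVEC endothelial cells and human MSC stroma.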

In the case of `CC(C)CC(NC(=O)C(Cc1ccccc1)NC(=O)c1cnccn1)B(O)O` (stereo not given) + CC(CO)NC(=O)c1cc(-c2ccc(Cl)cc2)nn(-c2cnn(C)c2)c1=O, the IC50 (second compound 0.1 µM) is reported as < 0.949 nM, the IC50 (second compound 0.316 µM) is reported as < 0.949 nM and the IC50 (second compound 1 µM) is reported as < 0.949 nM. For the same compound, the IC50 (second compound 3.16 µM) was < 0.949 nM, the IC50 (second compound 10 µM) was < 0.949 nM and the viability, T/C (second compound 0.1 µM, first compound 0.000949 µM) was 23.1%. The viability, T/C (second compound 0.1 µM, first compound 0.003 µM) was 6.06%, the viability, T/C (second compound 0.1 µM, first compound 0.00949 µM) was 3.66% and the viability, T/C (second compound 0.1 µM, first compound 0.03 µM) was 2.47%. For the same compound, the viability, T/C (second compound 0.1 µM, first compound 0.0949 µM) was 2.75%, the viability, T/C (second compound 0.1 µM, first compound 0.3 µM) was 1.27% and the viability, T/C (second compound 0.316 µM, first compound 0.000949 µM) was 24.2%. It also gave a viability, T/C (second compound 0.316 µM, first compound 0.003 µM) of 6.19%, a viability, T/C (second compound 0.316 µM, first compound 0.00949 µM) of 4.09% and a viability, T/C (second compound 0.316 µM, first compound 0.03 µM) of 1.94%. It also gave a viability, T/C (second compound 0.316 µM, first compound 0.0949 µM) of 2.38%, a viability, T/C (second compound 0.316 µM, first compound 0.3 µM) of 1.96% and a viability, T/C (second compound 1 µM, first compound 0.000949 µM) of 22.5%. The viability, T/C (second compound 1 µM, first compound 0.003 µM) was 5.68%, the viability, T/C (second compound 1 µM, first compound 0.00949 µM) was 2.71% and the viability, T/C (second compound 1 µM, first compound 0.03 µM) was 2.61%. It also gave a viability, T/C (second compound 1 µM, first compound 0.0949 µM) of 1.69%, a viability, T/C (second compound 1 µM, first compound 0.3 µM) of 1.84% and a viability, T/C (second compound 3.16 µM, first compound 0.000949 µM) of 21.1%. The viability, T/C (second compound 3.16 µM, first compound 0.003 µM) was 6.77%, the viability, T/C (second compound 3.16 µM, first compound 0.00949 µM) was 2.56% and the viability, T/C (second compound 3.16 µM, first compound 0.03 µM) was 1.42%. For the same compound, the viability, T/C (second compound 3.16 µM, first compound 0.0949 µM) was 1.44%, the viability, T/C (second compound 3.16 µM, first compound 0.3 µM) was 1.95% and the viability, T/C (second compound 10 µM, first compound 0.000949 µM) was 23.2%. The viability, T/C (second compound 10 µM, first compound 0.003 µM) was 6.76%, the viability, T/C (second compound 10 µM, first compound 0.00949 µM) was 2.77% and the viability, T/C (second compound 10 µM, first compound 0.03 µM) was 1.65%. For the same compound, the viability, T/C (second compound 10 µM, first compound 0.0949 µM) was 1.33% and the viability, T/C (second compound 10 µM, first compound 0.3 µM) was 1.68%.
`Nc1ccccc1NC(=O)c1ccc(CNC(=O)OCc2cccnc2)cc1` + CC(CO)NC(=O)c1cc(-c2ccc(Cl)cc2)nn(-c2cnn(C)c2)c1=O was tested, and the IC50 (second compound 0.1 µM) was 873 nM, the IC50 (second compound 0.316 µM) was 1050 nM and the IC50 (second compound 1 µM) was 1060 nM. The IC50 (second compound 3.16 µM) was 1000 nM, the IC50 (second compound 10 µM) was 438 nM and the viability, T/C [1] was 82.8%. It also gave a viability, T/C [2] of 110%, a viability, T/C [3] of 73.4% and a viability, T/C [4] of 45.7%. For the same compound, the viability, T/C [5] was 23.3%, the viability, T/C [6] was 7.92% and the viability, T/C [7] was 114%. For the same compound, the viability, T/C [8] was 98.5%, the viability, T/C [9] was 81.7% and the viability, T/C [10] was 51.4%. For the same compound, the viability, T/C [11] was 22.7%, the viability, T/C [12] was 6.83% and the viability, T/C [13] was 104%. For the same compound, the viability, T/C [14] was 104%, the viability, T/C [15] was 80.9% and the viability, T/C [16] was 50.8%. It also gave a viability, T/C [17] of 23.9%, a viability, T/C [18] of 7.01% and a viability, T/C [19] of 79.5%. It also gave a viability, T/C [20] of 104%, a viability, T/C [21] of 65.4% and a viability, T/C [22] of 52.9%. It also gave a viability, T/C [23] of 22.1%, a viability, T/C [24] of 7.39% and a viability, T/C [25] of 54.1%. It also gave a viability, T/C [26] of 68.4%, a viability, T/C [27] of 50.7% and a viability, T/C [28] of 39.8%. It also gave a viability, T/C [29] of 18.8% and a viability, T/C [30] of 5.36%.
For `O=C(C=Cc1cccc(S(=O)(=O)Nc2ccccc2)c1)NO` + CC(CO)NC(=O)c1cc(-c2ccc(Cl)cc2)nn(-c2cnn(C)c2)c1=O, the IC50 (second compound 0.1 µM) was 572 nM, the IC50 (second compound 0.316 µM) was 615 nM and the IC50 (second compound 1 µM) was 638 nM. The IC50 (second compound 3.16 µM) was 567 nM, the IC50 (second compound 10 µM) was 445 nM and the viability, T/C [1] was 85.8%. It also gave a viability, T/C [2] of 94%, a viability, T/C [3] of 69.8% and a viability, T/C [4] of 30%. For the same compound, the viability, T/C [5] was 8.25%, the viability, T/C [6] was 1.75% and the viability, T/C [7] was 110%. The viability, T/C [8] was 101%, the viability, T/C [9] was 75.5% and the viability, T/C [10] was 31.5%. It also gave a viability, T/C [11] of 7.87%, a viability, T/C [12] of 1.86% and a viability, T/C [13] of 99.8%. The viability, T/C [14] was 109%, the viability, T/C [15] was 77% and the viability, T/C [16] was 31.8%. For the same compound, the viability, T/C [17] was 8.85%, the viability, T/C [18] was 1.91% and the viability, T/C [19] was 90.7%. It also gave a viability, T/C [20] of 102%, a viability, T/C [21] of 68.4% and a viability, T/C [22] of 30.1%. For the same compound, the viability, T/C [23] was 7.44%, the viability, T/C [24] was 1.82% and the viability, T/C [25] was 72.7%. The viability, T/C [26] was 82.5%, the viability, T/C [27] was 53.6% and the viability, T/C [28] was 32.1%. The viability, T/C [29] was 7.16% and the viability, T/C [30] was 1.98%.
